Measured values reported in article PMC6934184, “Selective DNA-PKcs inhibition extends the therapeutic index of localized radiotherapy and chemotherapy” (The Journal of Clinical Investigation, 2019).

Target: T1, NUAK2 (Homo sapiens, UniProt Q9H093)
T1 construct: purchased Thermo Fisher Scientific (Life Technologies) SelectScreen
Test: SelectScreen LanthaScreen
Type: binding
Conditions: 1 µM
Procedure: The in vitro kinase selectivity of NU5455 was determined using the SelectScreen Broad Assay Panel (Thermo Fisher Scientific) involving activity and binding assays (Supplemental Table 1). […] Class IA PI3Ks were measured using the p85α subunit.
Kinase [ATP] % Assay Kinase [ATP] % Assay Kinase [ATP] % Assay Kinase [ATP] % Assay […]
NEK2 Km app 17.8 Z CSNK1G3 (CK1 gamma 3) Km app 4.2 Z NUAK2 n/a 1.0 L KIT T670E n/a -2.8 L […]
SGK (SGK1) Km app 8.5 Z MAP4K2 (GCK) Km app 2.7 Z TLK2 n/a -0.3 L STK38 (NDR) n/a -5.9 L
MERTK (cMER) Km app 8.3 Z CDK2/cyclin A Km app 2.7 Z TGFBR1 (ALK5) n/a -0.4 L MATK (HYL) Km app -6.3 Z
FYN Km app 8.3 Z EPHA1 Km app 2.7 Z CLK3 Km app -0.5 Z ABL1 E255K Km app -6.6 Z
TEC n/a 8.1 L CDK2/cyclin E1 n/a 2.7 L MAP3K14 (NIK) n/a -0.5 L STK17A (DRAK1) n/a -6.6 L
KIT V654A n/a 8.1 L TESK2 n/a 2.7 L AKT3 (PKB gamma) Km app -0.5 Z JAK2 JH1 JH2 Km app -6.7 Z
ROS1 Km app 8.0 Z SPHK1 Km app 2.7 A MAP3K9 (MLK1) Km app -0.5 Z PRKACB (PRKAC beta) n/a -6.8 L
FGFR3 K650E Km app 7.9 Z AMPK A2/B1/G1 Km app 2.6 Z IKBKB (IKK beta) Km app -0.6 Z PDGFRA (PDGFR alpha) Km app -6.8 Z
RAF1 (cRAF) Y340D Y341D 100 7.9 Z DYRK3 Km app 2.6 Z CAMK2A (CaMKII alpha) Km app -0.6 Z NEK9 Km app -7.2 Z
PI4KA (PI4K alpha) 10 7.8 A CSNK1D (CK1 delta) Km app 2.6 Z PRKCB1 (PKC beta I) Km app -0.7 Z PDK1 Km app -7.3 Z
HIPK2 Km app 7.8 Z ACVR2A n/a 2.5 L TTK n/a -0.7 L RPS6KB1 (p70S6K) Km app -7.8 Z […]

T1 sequence (Q9H093 whole entry): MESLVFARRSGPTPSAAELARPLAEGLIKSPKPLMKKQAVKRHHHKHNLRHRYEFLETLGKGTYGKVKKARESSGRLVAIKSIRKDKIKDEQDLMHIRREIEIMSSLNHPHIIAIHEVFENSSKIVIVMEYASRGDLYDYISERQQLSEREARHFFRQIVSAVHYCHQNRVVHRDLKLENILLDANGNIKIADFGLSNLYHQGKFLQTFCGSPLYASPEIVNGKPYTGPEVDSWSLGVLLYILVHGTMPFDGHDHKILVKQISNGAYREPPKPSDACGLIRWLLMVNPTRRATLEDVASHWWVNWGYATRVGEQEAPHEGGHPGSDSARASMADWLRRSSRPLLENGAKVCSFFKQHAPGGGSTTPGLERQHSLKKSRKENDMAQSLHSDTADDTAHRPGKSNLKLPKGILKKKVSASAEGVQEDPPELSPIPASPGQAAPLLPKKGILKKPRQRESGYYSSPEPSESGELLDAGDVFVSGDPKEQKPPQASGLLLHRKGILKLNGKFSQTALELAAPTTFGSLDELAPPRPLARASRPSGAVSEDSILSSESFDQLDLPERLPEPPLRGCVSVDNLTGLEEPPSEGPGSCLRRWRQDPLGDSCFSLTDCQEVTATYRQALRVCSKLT

Question: For `CN(C(=O)CN1CCOCC1)c1ccc2sc3c(-c4cccc5c(=O)cc(N6CC7CCC(C6)O7)oc45)cccc3c2c1` [NU5455], which “% displacement” value is on record?
Answer: The value was 1.0%.
